Assay results reported in ChEMBL document CHEMBL1126941, “Synthesis and evaluation of unsymmetrically substituted polyamine analogues as modulators of human spermidine/spermine-N1-acetyltransferase (SSAT) and as potential antitumor agents” (1993).

Assays:
Assay type in all cases: functional, Homo sapiens
[1] = tested on: SCLC; experiment: Tested for induction of SSAT activity in H82 SCLC cells following treatment with 10 uM BESpm
[2] = tested on: LCLC; experiment: Tested for induction of SSAT activity in H157 LCLC cells following treatment with 10 uM of the BESpm
[3] = tested on: SCLC; experiment: Tested for induction of SSAT activity in H82 SCLC cells following treatment with 10 uM of the BESpm

SMILES	SSAT [1] [pmol/min/mg]	SSAT [2] [pmol/min/mg]	SSAT [3] [pmol/min/mg]
Br.Br.Br.Br.CCNCCCNCCCCNCCCNCC	22.7	38300	–
Br.Br.Br.Br.C#CCNCCCNCCCNCCCNCC	–	19100	19.8
Br.Br.Br.Br.CCNCCCNCCCNCCCNCC1CC1	–	42800	47.1
